Laboratory results reported in patent US9546139B2, “Pyridine carboxylic acid based compound used as a P2X1 and P2X3 receptor antagonist, a production method for the same and a composition comprising the same” (GWANGJU INSTITUTE OF SCIENCE AND TECHNOLOGY, priority 2010, dated 2017).

Tests used:
mouse P2X1 receptor = target: T1, mouse P2X1 receptor (Mus musculus, UniProt P51576); assay: Two-electrode voltage clamp, ATP-induced ion current in Xenopus oocytes expressing mouse P2X1; assay type: cell-based; settings: for % inhibition mP2X1 / inhibition at 10 µM: Table 2, 10 μM compound, ion current induced by 2 μM ATP, mean ± SEM, n = 4; for inhibition at 10 µM: read-out: % inhibition mP2X1
T1 construct: EST clones containing full-length cDNAs of mouse P2X1 (clone ID: 4189541) and human P2X7 receptor (clone ID: 5286944); host or cells: Xenopus oocytes (cRNA injected)
T1 sequence (P51576 1-399): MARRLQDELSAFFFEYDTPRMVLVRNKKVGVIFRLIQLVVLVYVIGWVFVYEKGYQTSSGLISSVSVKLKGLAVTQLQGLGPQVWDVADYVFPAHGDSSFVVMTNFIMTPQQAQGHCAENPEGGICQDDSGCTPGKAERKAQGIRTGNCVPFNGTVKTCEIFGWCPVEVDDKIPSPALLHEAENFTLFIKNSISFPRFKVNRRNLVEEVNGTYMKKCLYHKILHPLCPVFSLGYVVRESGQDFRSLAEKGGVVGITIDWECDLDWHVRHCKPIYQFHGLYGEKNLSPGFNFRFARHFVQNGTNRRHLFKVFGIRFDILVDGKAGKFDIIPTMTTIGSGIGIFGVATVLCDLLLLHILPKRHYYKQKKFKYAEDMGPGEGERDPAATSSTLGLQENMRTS
Description: 1-1. Antagonistic Activity at Recombinant Mouse P2X1 and Human P2X3 Receptors
(§1) Xenopus oocytes were harvested and prepared with method as previously described in publications. Defolliculated oocytes were injected cytosolically with mouse P2X1 and human P2X3 receptor cRNA ([…], 1 μg/mL), respectively, incubated for 24 hrs at 18° C. in Barth's solution and kept for up to 12 days at 4° C. until used in electrophysiological experiments. ATP-activated membrane currents (Vh=−70 mV) were recorded from cRNA-injected oocytes using the twin-electrode voltage-clamp technique (Axoclamp 2B amplifier). Voltage recording (1-2 MΩ tip resistance) and current-recording microelectrodes (5 MΩ tip resistance) were filled with 3.0 M KCl. Oocytes were held in an electrophysiological chamber and superfused with Ringer's solution (5 mL/min, at 18° C.) containing (mM) NaCl, 110; KCl, 2.5; HEPES, 5; BaCl2, 1.8, adjusted to pH 7.5. ATP was superfused over the oocytes for 60-120s then washed out for a period of 20 min. For inhibition curves, data were normalized to the current evoked by ATP, at pH 7.5. Test substances were added for 20 min prior to ATP exposure; all peptides were tested for reversibility of their effects. The concentration required to inhibit the ATP response by 50% (IC50) was taken from Hill plots constructed using the formula: log(I/Imax−1), where I is the current evoked by ATP in the presence of an antagonist. Data are presented as mean±SEM (n=4) for the data from different batches of oocytes.

human P2X3 receptor = target: T2, human P2X3 receptor (Homo sapiens, UniProt P56373); assay: Two-electrode voltage clamp, ATP-induced ion current in Xenopus oocytes expressing human P2X3; assay type: cell-based; settings: for inhibition at 10 µM: read-out: % inhibition hP2X3
T2 construct: expressed in transfected cells; host or cells: Xenopus oocytes (cRNA injected); cDNA from the Max-Planck Institute laboratory (Dr. W. Stuhmer and Dr. F. Soto)
T2 sequence (P56373 1-397): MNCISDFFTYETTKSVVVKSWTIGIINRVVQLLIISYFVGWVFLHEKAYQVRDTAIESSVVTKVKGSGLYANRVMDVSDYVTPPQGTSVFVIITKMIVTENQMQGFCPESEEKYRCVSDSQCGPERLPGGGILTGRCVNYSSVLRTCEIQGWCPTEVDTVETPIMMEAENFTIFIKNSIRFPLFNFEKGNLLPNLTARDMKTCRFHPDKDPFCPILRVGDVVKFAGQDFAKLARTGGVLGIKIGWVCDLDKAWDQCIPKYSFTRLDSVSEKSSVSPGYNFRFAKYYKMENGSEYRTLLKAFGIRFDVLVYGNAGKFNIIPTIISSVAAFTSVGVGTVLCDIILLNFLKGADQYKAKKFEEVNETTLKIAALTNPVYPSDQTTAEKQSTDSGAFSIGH
Description: Antagonistic Activity at Recombinant Mouse P2X1 and Human P2X3 Receptors
as §1

human P2X7 receptor = target: T3, human P2X7 receptor (Homo sapiens, UniProt Q99572); assay: Ethidium+ accumulation assay in human P2X7-expressing HEK293 cells; assay type: cell-based; settings: 10 μM compound, ethidium+ accumulation induced by 6 μM BzATP, n = 3
T3 construct: EST clones containing full-length cDNAs of mouse P2X1 (clone ID: 4189541) and human P2X7 receptor (clone ID: 5286944); host or cells: HEK293
T3 sequence (Q99572 1-595): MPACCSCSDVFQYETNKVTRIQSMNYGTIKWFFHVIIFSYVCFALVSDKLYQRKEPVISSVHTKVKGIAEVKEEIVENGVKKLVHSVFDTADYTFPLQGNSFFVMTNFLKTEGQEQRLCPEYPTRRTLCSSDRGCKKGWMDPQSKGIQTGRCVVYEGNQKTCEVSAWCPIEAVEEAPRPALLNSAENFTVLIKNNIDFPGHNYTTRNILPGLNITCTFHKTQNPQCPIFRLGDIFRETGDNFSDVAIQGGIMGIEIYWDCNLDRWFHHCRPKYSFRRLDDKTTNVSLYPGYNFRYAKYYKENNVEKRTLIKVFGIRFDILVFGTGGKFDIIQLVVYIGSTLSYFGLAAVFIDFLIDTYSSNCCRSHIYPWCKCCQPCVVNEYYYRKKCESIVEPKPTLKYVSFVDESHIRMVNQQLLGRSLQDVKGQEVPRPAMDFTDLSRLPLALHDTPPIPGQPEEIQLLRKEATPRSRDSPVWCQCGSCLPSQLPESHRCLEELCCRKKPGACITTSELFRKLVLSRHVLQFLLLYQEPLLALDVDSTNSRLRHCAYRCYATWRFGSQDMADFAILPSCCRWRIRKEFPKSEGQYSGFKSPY
Description: 1-2. Ethidium^+ Accumulation Assay at Human P2X7 Receptors
Human P2X7-expressing HEK293 cells were grown as monolayer culture at 37° C. in a humidified atmosphere of 5% CO2, DMEM supplemented with 10% fetal bovine serum. Cells were harvested with treatment of Trypsin/EDTA solution, collected by centrifugation (200 g for 5 min).
The cells were resuspended at 2.5×10^6 cells/mL in assay buffers, consisting of (in mM) HEPES 10, KCl 140, glucose 5, EDTA 1 (pH 7.4), and then ethidium bromide (100 μM) was added. Cell suspensions were added to 96 well plates containing the P2X7 receptor agonist, ATP or BzATP, at 2×10^5 cells/wells. Plates were incubated at 37° C. for 120 min and cellular accumulation of ethidium^+ was determined by measuring fluorescence with Bio-Tek instrument FL600 fluorescent plate reader (excitation wavelength of 530 nm and emission wavelength of 590 nm). When the effects of antagonists, such as PPADS, KN62, and test peptides were studied, antagonists were treated together with agonist without pre-incubation.

P2 receptor = settings: conventional antagonist, stated shortcoming; cited from earlier work
[1] = Table 2, 10 μM compound, ion current induced by 2 μM ATP, mean ± SEM, n = 4
[2] = concentration-response curve, 2 μM ATP, mean of four observations, read-out: IC50 value

SMILES | % inhibition mP2X1 (mouse P2X1 receptor) | inhibition at 10 µM (mouse P2X1 receptor) | inhibition at 10 µM (human P2X3 receptor; [1]) | % inhibition hP2X7 (human P2X7 receptor) | further results
COc1ccccc1/C=C/c1nc(C)c(O)c(C(C)=O)c1C(=O)O [Compound 49, (E)-4-acetyl-5-hydroxy-2-(2-methoxystyryl)-6-methylnicotinic acid] |  | 11.4 ± 3.3% | 6.3 ± 2.3% | inactive | 
Cc1nc(N=Nc2ccc(S(=O)(=O)O)cc2S(=O)(=O)O)c(COP(=O)(O)O)c(C=O)c1O [PPADS, pyridoxalphosphate-6-azophenyl-2′,4′-disulphonic acid] |  |  |  |  | reversibility of blocking activity (P2 receptor): irreversible blocking activity
COc1ccc(CCc2nc(C)c(O)c(C=O)c2/C=C/C(=O)O)cc1 [Compound 64, (E)-3-(4-formyl-5-hydroxy-2-(4-methoxyphenethyl)-6-methylpyridin-3-yl)acrylic acid] |  | 51.4 ± 4.8% | 69.4 ± 7.5% | inactive | 
COc1ccc(CCc2nc(C)c(O)c(C=O)c2CCC(=O)O)cc1 [Compound 61, 3-(4-formyl-5-hydroxy-2-(4-methoxyphenethyl)-6-methylpyridin-3-yl)propanoic acid] |  | 50.9 ± 6.1% | 70.5 ± 4.7% | inactive | 

Continued, in another order:

% inhibition mP2X1 (mouse P2X1 receptor) | inhibition at 10 µM (mouse P2X1 receptor) | inhibition at 10 µM (human P2X3 receptor; [1]) | % inhibition hP2X7 (human P2X7 receptor) | SMILES | further results
44.2 ± 4.0% | 46% | 18.3 ± 6.4% | inactive | CC(=O)c1c(O)c(C)nc(Cc2ccccc2)c1C(=O)O [Compound 44, 4-acetyl-2-benzyl-5-hydroxy-6-methylnicotinic acid] | 
73.4 ± 9.7% | 77% | 51 ± 9.8% | inactive | Cc1nc(CCc2ccccc2)c(C(=O)O)c(C(=O)O)c1O [Compound 36, 5-Hydroxy-6-methyl-2-phenethyl-pyridine-3,4-dicarboxylic acid] | Hill coefficient (mouse P2X1 receptor; concentration-inhibitory curve, 2 μM ATP (FIG. 1B, FIG. 2A)): −1.03±0.21; IC50 (mouse P2X1 receptor; [2]): 361 nM; inhibition at 0.1 µM (human P2X3 receptor; concentration of 100 nM, receptor not stated in the sentence (follows FIG. 2B, human P2X3), read-out: % inhibition): 38.3%; Hill coefficient (human P2X3 receptor; concentration-inhibitory curve, 2 μM ATP (FIG. 1C, FIG. 2B)): −0.63±0.20; IC50 (human P2X3 receptor; [2]): 432 nM
 | 52.4 ± 6.2% | 39.3 ± 3.8% | inactive | COc1cccc(CCc2nc(C)c(O)c(C(=O)O)c2C(=O)O)c1 [Compound 40, 5-Hydroxy-2-[2-(3-methoxy-phenyl)-ethyl]-6-methyl-pyridine-3,4-dicarboxylic acid] | 
 | 54.2 ± 10.6% | 31.4 ± 6.2% | inactive | Cc1nc(Cc2ccccc2)c(C(=O)O)c(C(=O)O)c1O [Compound 35, 2-Benzyl-5-hydroxy-6-methyl-pyridine-3,4-dicarboxylic acid] | 
53.9 ± 5.1% |  |  | inactive | Cc1nc(CC(c2ccccc2)c2ccccc2)c(C(=O)O)c(C(=O)O)c1O [Compound 51, 2-(2,2,-diphenylethyl)5-hydroxy-6-methylpyridine-3,4-dicarboxylic acid] | % inhibition hP2X3 (human P2X3 receptor; [1]): 62.9 ± 7.1%
